Assay results from ChEMBL document CHEMBL3091384, “Chemical probes to study ADP-ribosylation: synthesis and biochemical evaluation of inhibitors of the human ADP-ribosyltransferase ARTD3/PARP3” (J Med Chem, 2013).

Tests used:
[1] = target: T1, Poly [ADP-ribose] polymerase 1 (Homo sapiens, UniProt P09874)
[2] = target: Poly [ADP-ribose] polymerase 2 (Homo sapiens) (UniProt Q9UGN5)
[3] = test system: Poly [ADP-ribose] polymerase 14, ARTD8/PARP14 (Homo sapiens)
Homo sapiens = organism: Homo sapiens; assay: Binding affinity to […] (unknown origin) assessed as change in melting temperature by thermal stabilization assay
[4] = target: T1, Poly [ADP-ribose] polymerase 1; remark: listed apart in the source

T1 sequence (P09874 whole entry): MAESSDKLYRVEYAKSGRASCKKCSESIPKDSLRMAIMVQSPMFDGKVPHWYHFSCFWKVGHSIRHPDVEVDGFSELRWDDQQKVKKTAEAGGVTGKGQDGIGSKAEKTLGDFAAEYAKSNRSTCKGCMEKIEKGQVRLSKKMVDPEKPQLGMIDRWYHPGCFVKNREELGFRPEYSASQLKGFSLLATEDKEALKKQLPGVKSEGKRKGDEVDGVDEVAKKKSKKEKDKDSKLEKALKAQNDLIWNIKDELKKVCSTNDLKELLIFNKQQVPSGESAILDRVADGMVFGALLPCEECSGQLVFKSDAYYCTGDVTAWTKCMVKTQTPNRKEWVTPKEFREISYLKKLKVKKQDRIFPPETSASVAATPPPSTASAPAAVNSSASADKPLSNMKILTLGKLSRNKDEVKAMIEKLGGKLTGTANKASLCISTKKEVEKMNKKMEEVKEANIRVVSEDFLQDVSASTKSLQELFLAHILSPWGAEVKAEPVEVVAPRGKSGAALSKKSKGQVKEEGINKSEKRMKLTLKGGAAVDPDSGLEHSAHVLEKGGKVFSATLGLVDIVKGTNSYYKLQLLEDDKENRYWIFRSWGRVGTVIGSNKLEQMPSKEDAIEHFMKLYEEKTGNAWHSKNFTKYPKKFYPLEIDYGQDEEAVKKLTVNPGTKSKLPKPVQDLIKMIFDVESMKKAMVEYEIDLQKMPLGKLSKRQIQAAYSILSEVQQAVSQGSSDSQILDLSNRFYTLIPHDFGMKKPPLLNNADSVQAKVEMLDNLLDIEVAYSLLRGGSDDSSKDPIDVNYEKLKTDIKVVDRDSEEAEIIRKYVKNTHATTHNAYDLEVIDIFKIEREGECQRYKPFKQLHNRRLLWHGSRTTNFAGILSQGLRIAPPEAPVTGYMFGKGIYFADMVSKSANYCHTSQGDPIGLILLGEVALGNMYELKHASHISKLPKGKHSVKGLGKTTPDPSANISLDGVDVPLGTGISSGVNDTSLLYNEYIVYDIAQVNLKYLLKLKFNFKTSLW
Chain of Poly [ADP-ribose] polymerase 2 (Homo sapiens) (Q9UGN5 whole entry): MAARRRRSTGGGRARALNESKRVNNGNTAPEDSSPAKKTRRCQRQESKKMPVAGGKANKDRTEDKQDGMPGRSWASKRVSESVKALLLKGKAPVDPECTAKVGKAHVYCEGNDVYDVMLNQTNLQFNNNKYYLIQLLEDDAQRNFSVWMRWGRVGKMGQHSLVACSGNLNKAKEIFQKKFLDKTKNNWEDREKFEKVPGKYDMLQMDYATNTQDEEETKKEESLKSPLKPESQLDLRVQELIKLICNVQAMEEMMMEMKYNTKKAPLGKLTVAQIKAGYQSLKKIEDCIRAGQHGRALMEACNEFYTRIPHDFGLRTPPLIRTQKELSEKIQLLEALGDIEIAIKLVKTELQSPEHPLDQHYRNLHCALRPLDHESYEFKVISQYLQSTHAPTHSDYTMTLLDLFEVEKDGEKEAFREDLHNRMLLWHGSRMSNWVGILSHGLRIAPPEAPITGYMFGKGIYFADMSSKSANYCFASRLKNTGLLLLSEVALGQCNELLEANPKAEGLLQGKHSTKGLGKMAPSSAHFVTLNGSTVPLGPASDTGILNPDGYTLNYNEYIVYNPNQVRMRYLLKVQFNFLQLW

IC50 [1] [nM] | ΔTm [2] [°C] | ΔTm [3] [°C] | ΔTm (Homo sapiens) [°C] | ΔTm [4] [°C] | SMILES
780 | 1.92 | 0.1 | 0.8 | 2.37 | O=C(CCc1nc2ccccc2c(=O)[nH]1)N[C@@H]1CCc2ccccc21
510 | 1.39 | 0.18 | 0.84 | 2.38 | O=C(CCc1nc2ccccc2c(=O)[nH]1)N[C@H]1CCc2ccccc21
